Test results: article PMC6297231 (Nature Communications, 2018)
Read-outs that look alike come from different tables or passages of the source.

Experiments:
[1] = system: murine Eµ-Myc lymphoma tumors; assay: GFP-labeled Eµ-Myc lymphoma model; format: in vivo, mice; settings: 100 mg kg^−1 on day 3 and day 10 post-transplantation
From the text: Eµ-Myc: These studies complied with all ethical regulations in accordance with the guidelines established by the Institutional Animal Experimentation Ethics Committee, Peter MacCallum Cancer Center. Non-irradiated C57BL/6 mice between 6 and 8 weeks old were transplanted by tail vein injection with 100,000 GFP-labeled Eμ-Myc lymphoma cells[39] harvested from lymph nodes of a syngeneic mouse. Treatment started 3 days after implantation. AZD5991 and vehicle were formulated and administered as mentioned above. Peripheral blood was collected by retro-orbital sampling 11 days post-transplantation and GFP-expressing leukemic cells assessed by flow cytometry using a BD FACSCanto II cytometer and data analyzed using Flowlogic software. Gating strategy is shown in Supplementary Figure 8.

KMS12BM = assay: Cell viability assay; format: cell-based; settings: Homo sapiens, KMS-12-BM, 24 h; KMS12BM (MM); read-out: AZD5991 24h GI50
NCI-H929 = assay: Cell viability assay; format: cell-based; settings: Homo sapiens, 24 h; NCI-H929 (MM); read-out: AZD5991 24h GI50
Protocol: (§1) Cells were plated at 3000 cells/well in 384-well white plates in corresponding cell growth media. […] Caspase-3/7 activation was subsequently determined using a Caspase-Glo 3/7 Reagent (Promega) and viability was assayed using the CellTiter-Glo Reagent (Promega) as described in manufacturer’s instructions. Dose–response curves for caspase-3/7 activation and viability were plotted and analyzed (including EC50 and GI50 determination) using GraphPad Prism.

RPMI8226 = assay: Cell viability assay; format: cell-based; settings: Homo sapiens, RPMI-8226, 24 h; RPMI8226 (MM); read-out: AZD5991 24h GI50
Protocol: as §1

KMS26 = assay: Cell viability assay; format: cell-based; settings: KMS-26, 24 h; KMS26 (MM); read-out: AZD5991 24h GI50
Protocol: as §1

ARH77 = assay: Cell viability assay; format: cell-based; settings: Homo sapiens, ARH-77, 24 h; ARH77 (MM); read-out: AZD5991 24h GI50
Protocol: as §1

MV411 [2] = assay: Cell viability assay; format: cell-based; settings: Homo sapiens, MV4-11, 24 h; MV411 (AML); read-out: AZD5991 24h GI50
Protocol: as §1

MONOMAC6 = assay: Cell viability assay; format: cell-based; settings: Homo sapiens, MONO-MAC-6, 24 h; MONOMAC6 (AML); read-out: AZD5991 24h GI50
Protocol: as §1

OCIAML3 = assay: Cell viability assay; format: cell-based; settings: Homo sapiens, OCI-AML-3, 24 h, read-out: AZD5991 24h GI50
Protocol: as §1

HEL92.1.7 = assay: Cell viability assay; format: cell-based; settings: Homo sapiens, HEL 92.1.7, 24 h; HEL92.1.7 (AML); read-out: AZD5991 24h GI50
Protocol: as §1

Bjab = assay: Cell viability assay; format: cell-based; settings: Homo sapiens, 24 h; Bjab (NHL); read-out: AZD5991 24h GI50
Protocol: as §1

GRANTA519 = assay: Cell viability assay; format: cell-based; settings: Homo sapiens, Granta-519, 24 h; GRANTA519 (NHL); read-out: AZD5991 24h GI50
Protocol: as §1

Karpas422 = assay: Cell viability assay; format: cell-based; settings: Homo sapiens, KARPAS-422, 24 h; Karpas422 (NHL); read-out: AZD5991 24h GI50
Protocol: as §1

MINO = assay: Cell viability assay; format: cell-based; settings: Homo sapiens, 24 h; MINO (NHL); read-out: AZD5991 24h GI50
Protocol: as §1

OCILY19 = assay: Cell viability assay; format: cell-based; settings: Homo sapiens, OCI-LY19, 24 h; OCILY19 (NHL); read-out: AZD5991 24h GI50
Protocol: as §1

RCK8 = assay: Cell viability assay; format: cell-based; settings: Homo sapiens, 24 h; RCK8 (NHL); read-out: AZD5991 24h GI50
Protocol: as §1

VAL = assay: Cell viability assay; format: cell-based; settings: 24 h; VAL (NHL); read-out: AZD5991 24h GI50
Protocol: as §1

Will2 = assay: Cell viability assay; format: cell-based; settings: 24 h; Will2 (NHL); read-out: AZD5991 24h GI50
Protocol: as §1

H23 = assay: Cell viability assay; format: cell-based; settings: Homo sapiens, NCI-H23, 24 h; H23 (Lung); read-out: AZD5991 24h GI50
Protocol: as §1

HCC827 = assay: Cell viability assay; format: cell-based; settings: Homo sapiens, 24 h; HCC827 (Lung); read-out: AZD5991 24h GI50
Protocol: as §1

SKLU1 = assay: Cell viability assay; format: cell-based; settings: Homo sapiens, SK-LU-1, 24 h; SKLU1 (Lung); read-out: AZD5991 24h GI50
Protocol: as §1

HCC1954 = assay: Cell viability assay; format: cell-based; settings: Homo sapiens, 24 h; HCC1954 (Breast); read-out: AZD5991 24h GI50
Protocol: as §1

DU145 = assay: Cell viability assay; format: cell-based; settings: Homo sapiens, DU-145, 24 h; DU145 (Urology); read-out: AZD5991 24h GI50
Protocol: as §1

DLD1 = assay: Cell viability assay; format: cell-based; settings: Homo sapiens, DLD-1, 24 h; DLD1 (GI); read-out: AZD5991 24h GI50
Protocol: as §1

OE21 = assay: Cell viability assay; format: cell-based; settings: 24 h; OE21 (Others); read-out: AZD5991 24h GI50
Protocol: as §1

U2OS = assay: Cell viability assay; format: cell-based; settings: Homo sapiens, 24 h; U2OS (Others); read-out: AZD5991 24h GI50
Protocol: as §1

MV411 [3] = assay: Caspase-3/7 activation assay; format: cell-based; settings: Homo sapiens
Protocol: as §1

NB4 = assay: Caspase-3/7 activation assay; format: cell-based; settings: Homo sapiens, NB-4, 6 h
Protocol: as §1

`Cc1c2c(nn1C)CSCc1cc(n(C)n1)CSc1cc(c3ccccc3c1)OCCCc1c(C(=O)O)n(C)c3c-2c(Cl)ccc13` (atropisomer, axis not shown; (Ra)) [(Ra)-7] was tested, and the “survival vs. vehicle control group” value [1] was “prolonged survival”, the “leukemic cells in peripheral blood” value ([1]; day 11) was “depletion of leukemic cells from peripheral blood” and the GI50 (KMS12BM) was 15 nM. The GI50 (NCI-H929) was 53 nM, the GI50 (RPMI8226) was 55 nM and the GI50 (KMS26) was 141 nM. For the same molecule, the GI50 (ARH77) was 18200 nM, the GI50 (MV411 [2]) was 13 nM and the GI50 (MONOMAC6) was 226 nM. The GI50 (OCIAML3) was 714 nM, the GI50 (HEL92.1.7) was 1640 nM and the GI50 (Bjab) was 16 nM. For the same molecule, the GI50 (GRANTA519) was 19300 nM, the GI50 (Karpas422) was 490 nM and the GI50 (MINO) was 149 nM. The GI50 (OCILY19) was 140 nM, the GI50 (RCK8) was > 30000 nM and the GI50 (VAL) was 102 nM. For the same molecule, the GI50 (Will2) was 43 nM, the GI50 (H23) was 122 nM and the GI50 (HCC827) was 20100 nM. The GI50 (SKLU1) was 29900 nM, the GI50 (HCC1954) was 756 nM and the GI50 (DU145) was 26800 nM. For the same molecule, the GI50 (DLD1) was 15100 nM, the GI50 (OE21) was > 30000 nM and the GI50 (U2OS) was 20600 nM. For the same molecule, the EC50 (MV411 [3]; MV4-11, 6 h, read-out: 6h caspase EC50, MV411, single agent) was 56.3 nM, the EC50 (MV411 [3]; MV4-11, 6 h, read-out: AZD5991 6h EC50, MV411 (AML), caspase 3/7 activation) was 25 nM and the EC50 (MV411 [3]; MV4-11, caspase activation, Mcl-1-dependent cell line, read-out: MV4-11, EC50) was 24 nM. For the same molecule, the EC50 (MV411 [3]; MV4-11, mean of log transformed data, read-out: MV4-11 caspase pEC50 (converted)) was 24 nM, the EC50 (NB4; read-out: 6h caspase EC50, NB4, single agent) was 201 nM and the EC50 (NB4; read-out: AZD5991 6h EC50, NB4 (AML), caspase 3/7 activation) was 347 nM.
